{
  "source": "patent US20240261426A1",
  "about": "“CONJUGATES COMPRISING PHOSPHOANTIGENS AND THEIR USE IN THERAPY” (BYONDIS B.V., priority 2021, published 2024)",
  "molecules": {"B1": {"name": "rituximab (anti-CD20 monoclonal antibody) (antibody, V domains shown)", "VH": "QVQLQQPGAELVKPGASVKMSCKASGYTFTSYNMHWVKQTPGRGLEWIGAIYPGNGDTSYNQKFKGKATLTADKSSSTAYMQLSSLTSEDSAVYYCARSTYYGGDWYFNVWGAGTTVTVSA", "VL": "QIVLSQSPAILSASPGEKVTMTCRASSSVSYIHWFQQKPGSSPKPWIYATSNLASGVPVRFSGSGSGTSYSLTISRVEAEDAATYYCQQWTSNPPTFGGGTKLEIK"}},
  "key": {"Vδ2 γδ T-cells [1]": {"tested_on": "Vδ2 γδ T-cells", "experiment": "Functional assay: Vδ2 γδ T-cell activation (CD107a, IFNγ, TNFα) after co-culture of PBMCs with pretreated Raji cells", "format": "cell-based, human", "settings": "for IFNγ production and degranulation of Vδ2 γδ T-cells compared to pretreatment with HMBPP: pre-treated Raji cells; for IFNγ production and degranulation (CD107a) of Vδ2 γδ T-cells, in words: pretreated Raji cells co-cultured with PBMCs", "protocol": "(§1) To determine (unconjugated) phosphoantigen prodrug activity, Raji target cells were pre-incubated with XC1 and XD1, prior to co-culture with peripheral blood mononuclear cells (PBMCs) containing effector cells. Selective gammadelta T-cell activation was studied in vitro after co-culture of PBMCs with tumor cells (from the CD20-positive Burkitt's Lymphoma human tumor cell line Raji) pretreated with phosphoantigen HMBPP, phosphoantigen prodrugs XC1, XD1, or the conjugates listed in Table 1.\n(§2) The CD20-positive Burkitt's Lymphoma human tumor cell line Raji (DSMZ, the German collection of Microorganisms and cell cultures GmbH (Leibniz Institute, Germany)) was used for in vitro experiments. Raji cells were cultured in complete growth medium (CGM): RPMI-1640 (Lonza, Walkersville, MD, USA) supplemented with 10% Heat-inactivated (HI) Fetal Bovine Serum (FBS) (Gibco-Life Technologies; Carlsbad, CA) and 80 U/mL Penicillin-Streptomycin solution (Lonza Group Ltd, Basel Switzerland). Raji cells were maintained at 37° C. in a humidified incubator containing 5% CO2 and sub-cultured twice a week.\nFor stimulation with conjugates according to the invention (ADCs), unconjugated phosphoantigen prodrugs and HMBPP, Raji cells were harvested, diluted to a concentration of 5×10^6 cells/mL and 50 μL (equivalent to 250.000 cells/well) of this cell suspension was seeded into a 96-well plate. A 2-times concentrated, 10-fold serial dilution of the prodrugs and ADC was prepared in CGM. Plated Raji cells were incubated overnight (O/N) in a humidified incubator with 5% CO2 at 37° C. with 50 μL/well of the serially-diluted compounds.\nThe following day, the 96 well plate with Raji cells and compounds (ADCs, unconjugated phosphoantigen prodrugs or HMBPP) was washed by adding 100 μL/well CGM, centrifugation at 300×g for 3 minutes at room temperature (RT), and removal of supernatant in order to remove excessive unbound compound.\nAs a source of immune cells, frozen peripheral blood mononuclear cells (PBMCs) of a healthy human donor were thawed, resuspended in CGM and placed O/N in a humidified incubator with 5% CO2 at 37° C. to let the cells recover.\nThe recovered PBMCs were harvested, counted and diluted to a concentration of 10×10^6 cells/mL in CGM, and 50 μL/well (equivalent to 0.5×10^6 cells/well) was added to the Raji cells. […] In all experiments, 1% Phytohemagglutinin (PHA-M, Gibco-ThermoFisher), known as an aspecific activator of immune cells, was also included in a well to serve as a positive control. Samples were incubated for 6 hours in a humidified incubator with 5% CO2 at 37° C. […]"}, "[2]": {"tested_on": "NK cells, CD8+ T-cells, Vδ1 γδ T-cells", "experiment": "Functional assay: activation of other immune cells after co-culture of PBMCs with pretreated Raji cells", "format": "cell-based, human", "settings": "pretreated Raji cells co-cultured with PBMCs; PHA-M added to co-culture", "protocol": "as §1\nas §2, with “week. […]” for “week.”\nThe recovered PBMCs were harvested, counted and diluted to a concentration of 10×10^6 cells/mL in CGM, and 50 μL/well (equivalent to 0.5×10^6 cells/well) was added to the Raji cells. […]"}, "Vδ2 γδ T-cells [3]": {"tested_on": "Vδ2 γδ T-cells", "experiment": "Functional assay with pretreated CD20 positive B-cell lines (CD107a read-out)", "format": "cell-based, human", "settings": "all tested B-cell lines (Raji, HG-3, MEC-1, SU-DHL-4, SU-DHL-8)"}, "Vδ2 γδ T-cells [4]": {"tested_on": "Vδ2 γδ T-cells", "experiment": "Functional assay with pretreated HER2-positive cell lines", "format": "cell-based, human", "settings": "pretreated HCT-116 cells (low HER2)"}, "Vδ2 γδ T-cells [5]": {"tested_on": "Vδ2 γδ T-cells", "experiment": "Functional assay with pretreated MOLM-13 or Raji cells, different DAR (CD107a)", "format": "cell-based, human", "protocol": "The functional assay was performed as disclosed in Example 23, with the exception that Raji and MOLM-13 cells were pretreated for 16 or 40 hours with antibodies/ADCs/controls (Table 13). Furthermore, CD107a degranulation levels were determined only and not IFNγ expression levels. Thus, on the third experimental days, cells were directly analyzed on the BD FACSymphony A3 Cell analyzer (BD Biosciences, San Jose, CA, USA), before incubation with BD Perm/wash. […] EC50 values were calculated in GraphPad Prism as the concentration in μg/mL that gives a response half way between bottom and top of the curve. […] Raji cells were cultured as described in Example 23. The CD123-positive acute monocytic leukemia cell line MOLM-13 (DSMZ, ACC 554, the German collection of Microorganisms and cell cultures GmbH (Leibniz Institute, Germany)) was cultured in CGM and was maintained at 37° C. in a humidified incubator containing 5% CO2 and sub-cultured twice a week."}, "Raji cells [6]": {"tested_on": "Raji cells", "experiment": "Direct compound-related cell death (CellTiter-Glo, 6 days)", "format": "cell-based, human", "settings": "6 days incubation, positive control", "protocol": "Metabolic activity was assessed after 6 days, using the CellTiter-Glo™ (CTG) luminescent assay kit from Promega Corporation (Madison, WI) according to the manufacturer's instructions. Cell viability was expressed as the percentage survival relative to the average mean of untreated cells or vehicle-treated cells (only growth medium or 1% DMSO) multiplied with 100. The efficacy was calculated by subtracting the bottom of the dose response curve (DRC) from 100%."}, "Raji cells [7]": {"tested_on": "Raji cells", "experiment": "Cellular binding to Raji cells (flow cytometry)", "parameters": "species or system human", "protocol": "Raji cells were cultured as described in Example 23. […] After an incubation time of 30 minutes at 4° C., the cells were washed twice with ice-cold FACS buffer. […] After 30 minutes at 4° C., cells were washed twice and resuspended in 150 μL ice-cold FACS buffer. Fluorescence intensities were determined by flow cytometry using the FACSVerse or FACSymphony (BD Biosciences) and indicated as the median fluorescence intensity (MFI). Curves were fitted by nonlinear regression with a variable slope (four parameters) in GraphPad Prism version 9. EC50 values were calculated in GraphPad Prism as the concentration in μg/mL that gives a response halfway between bottom and top of the curve. Binding experiments were performed N=2 or N=3 times."}, "[8]": {"molecular_target": "T1, CD20 on Raji cells (CD20-positive Burkitt's Lymphoma human tumor cell line) (human, UniProt P11836 1-297)", "T1 construct": "whole, on cells", "T1 sequence (looked up)": "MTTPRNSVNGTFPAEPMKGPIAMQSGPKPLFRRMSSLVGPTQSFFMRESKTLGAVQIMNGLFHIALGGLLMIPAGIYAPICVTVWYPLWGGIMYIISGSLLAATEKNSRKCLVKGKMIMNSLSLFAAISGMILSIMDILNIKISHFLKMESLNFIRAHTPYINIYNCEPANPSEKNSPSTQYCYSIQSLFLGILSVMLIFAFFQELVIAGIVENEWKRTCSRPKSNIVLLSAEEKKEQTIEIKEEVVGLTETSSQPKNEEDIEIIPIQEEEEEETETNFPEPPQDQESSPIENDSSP", "experiment": "flow cytometry on CD20-positive Raji cells, APC anti-human IgG F(ab')2 secondary, MFI curve fit; experiment 1 and 2"}, "[9]": {"molecular_target": "T1, CD20 on Raji cells (CD20-positive …)", "experiment": "flow cytometry on CD20-positive Raji cells, APC anti-human IgG F(ab')2 secondary, MFI curve fit; experiment 3 and 4"}, "[10]": {"molecular_target": "T1, CD20 on Raji cells (CD20-positive …)", "experiment": "flow cytometry on CD20-positive Raji cells, APC anti-human IgG F(ab')2 secondary, MFI curve fit; experiment 5, 6 and 7"}},
  "data": [
    {"molecule": "C/C(=C\\CCP(=O)(N[C@@H](C)C(=O)OCc1ccccc1)Oc1ccccc1)CO", "note": "(stereo partly shown) [XD1]", "values": [
      {"measurement": "IFNγ production and degranulation of Vδ2 γδ T-cells compared to pretreatment with HMBPP", "setting": "Vδ2 γδ T-cells [1]", "result": "more potently induced"},
      {"measurement": "IFNγ production and degranulation (CD107a) of Vδ2 γδ T-cells, in words", "setting": "Vδ2 γδ T-cells [1]", "result": "dose-dependently induced IFNγ production and degranulation"},
      {"measurement": "activation of other immune cells (NK cells, CD8+ T-cells, Vδ1 γδ T-cells), in words", "setting": "[2]", "result": "without inducing direct activation of other immune cells"}
    ]},
    {"molecule": "C/C(=C\\COP(=O)(O)OP(=O)(O)O)CO", "note": "[HMBPP, (E)-4-Hydroxy-3-methyl-but-2-enyl pyrophosphate]", "values": [
      {"measurement": "activation (degranulation) of Vδ2 γδ T-cells, in words", "setting": "Vδ2 γδ T-cells [3]", "result": "induced degranulation of Vδ2 γδ T-cells"},
      {"measurement": "activation of Vδ2 γδ T-cells, in words", "setting": "Vδ2 γδ T-cells [4]", "result": "able to activate Vδ2 γδ T-cells"},
      {"measurement": "Vδ2 γδ T-cell activation, in words", "setting": "Vδ2 γδ T-cells [5]", "result": "capable of activating Vδ2 γδ T-cells"}
    ]},
    {"molecule": "COC(=O)c1cc2c([nH]1)C(=O)C=C1N(C(=O)c3cc4cc(OC)c(OC)c(OC)c4[nH]3)C[C@H]3C[C@]123", "note": "[duocarmycin type toxin]", "values": [
      {"measurement": "direct compound related cell death, in words", "setting": "Raji cells [6]", "result": "very effective"}
    ]},
    {"molecule": "C/C(=C\\CCP(=O)(OCOC(=O)C(C)(C)C)OCOC(=O)C(C)(C)C)CO", "note": "[XC1]", "values": [
      {"measurement": "IFNγ production and degranulation of Vδ2 γδ T-cells compared to pretreatment with HMBPP", "setting": "Vδ2 γδ T-cells [1]", "result": "more potently induced"},
      {"measurement": "IFNγ production and degranulation (CD107a) of Vδ2 γδ T-cells, in words", "setting": "Vδ2 γδ T-cells [1]", "result": "dose-dependently induced IFNγ production and degranulation"},
      {"measurement": "activation of other immune cells (NK cells, CD8+ T-cells, Vδ1 γδ T-cells), in words", "setting": "[2]", "result": "without inducing direct activation of other immune cells"}
    ]},
    {"molecule": "rituximab: Anti-CD20 monoclonal antibody (MoAb) [reference compound]", "values": [
      {"measurement": "Binding to Raji cells EC50", "setting": "Raji cells [7]; Experiment 1 and 2", "result": 0.6, "unit": "µg/mL"},
      {"measurement": "Binding to Raji cells EC50", "setting": "Raji cells [7]; Experiment 3 and 4", "result": 1.221, "unit": "µg/mL"},
      {"measurement": "Binding to Raji cells EC50", "setting": "Raji cells [7]; Experiment 5, 6 and 7", "result": 3.451, "unit": "µg/mL"}
    ]},
    {"molecule": "B1", "values": [
      {"measurement": "EC50", "setting": "[8]", "result": 0.6, "unit": "µg/mL"},
      {"measurement": "EC50", "setting": "[9]", "result": 1.22, "unit": "µg/mL"},
      {"measurement": "EC50", "setting": "[10]", "result": 3.45, "unit": "µg/mL"}
    ]}
  ]
}
